This is an account of results in patent US11564875B2, “Cosmetic composition for skin regeneration” (Amorepacific Corporation, priority 2018, dated 2023).

Series [1] in a line: Cytotoxicity evaluation using a serum-free media. Format: cell-based. How it is done:
A cytotoxicity evaluation of the compound represented by Chemical Formula 1-1 was twice performed by using a serum-free media, and the results are shown in FIGS. 5 and 6. Referring to FIGS. 5 and 6, a significant cytotoxicity concentration of the compound represented by Chemical Formula 1-1 was 20 μM (cell viability<80%).

Series [2] concerns AQP3, PPAR-α, PPAR-β, K5, and K14 gene level in human keratinocyte cell line (HaCaT cells). The series is described as follows: Skin regeneration effect after ultraviolet (UV) irradiation: gene level changes in UVA-irradiated HaCaT cells. As to conditions: for skin regeneration effect: HaCaT cells. The class given is cell-based. An excerpt:
A human keratinocyte cell line (HaCaT cells) was irradiated with ultraviolet (UVA) (2 J/cm^2, 3 J/cm^2) and then, treated with a compound represented by Chemical Formula 1-1 (camellenodiol), which was obtained by extracting 10 kg of dry camellia powder with water-soluble ethanol and subsequently, performing filtration, concentration under a reduced pressure, and purification by using HP-20 and silica chromatography, to exam AQP3, PPAR-α, PPAR-β, K5, and K14 gene level changes, and the results are shown in FIGS. 1 to 4.

As a reminder, the cell viability is a read-out of living cells in per cent, often relative to untreated cells. A low value points to more harm to the cells. For `CC1(C)CC[C@]2(O)C(=O)C[C@]3(C)C(=CC[C@@H]4[C@@]5(C)CC[C@H](O)C(C)(C)[C@@H]5CC[C@]43C)[C@@H]2C1` [Chemical Formula 1-1, camellenodiol], the cell viability in series [1] (at 20 μM) is reported as below 80%. The same molecule showed a significant cytotoxicity concentration in series [1] (performed twice, criterion cell viability<80%, FIGS. 5 and 6) of 20 µM. Besides, the “levels of the genes (AQP3, PPAR-α, PPAR-β, K5, K14)” value in series [2] (HaCaT cells after UVA irradiation (2 J/cm^2, 3 J/cm^2), compound at 5 μM to 10 μM, specifically 7.5 μM, FIGS. 1 to 4) was “significantly increased”. Besides, the skin regeneration effect result in series [2] (UVA 2 J/cm^2, compound at 7.5 μM to 10 μM) is recorded as “excellent skin regeneration effect”; in series [2] (UVA 3 J/cm^2, compound at 5 μM to 7.5 μM), “excellent skin regeneration effect”.
